# Measured values published in patent US6964975B2, “Isoxazole and thiazole compounds and use thereof as medicine” (Kirin Beer Kabushiki Kaisha, priority 2000, dated 2005).
# Legend:
# Human EDG-2/HepG2 cells = test: Inhibitory activity on LPA-accelerated [3H] thymidine incorporation (cell proliferation); assay type: cell-based; details: 50% inhibition of LPA-induced increase of [3H] thymidine incorporation
# Description: (§1) The human EDG-2 expression plasmid was introduced into HepG2 cells by electroporation. After the introduction, culturing was continued while exchanging selective media every 3 to 4 days, thereby obtaining an expressed colony. Regarding these cells, Ca-influx and cell-proliferation by LPA, level of [^3H] LPA binding and the like were inspected to select a cell line which highly expresses human EDG-2 (human EDG-2/HepG2).
# Human EDG-2/HepG2 cells suspended in 10% bovine serum-containing DMEM (Dulbecco's modified eagle medium) were plated on a 96-well plate and, on the next day, the medium was exchanged with serum-free DMEM. 24 hours later, the medium was exchanged with DMEM containing LPA or DMEM containing no LPA, cells were cultured for further 16 hours, and [^3H] thymidine was then added. After culturing for 8 hours subsequent to the addition of [^3H] thymidine, cells were washed with PBS (phosphate-buffered saline), and the amount of [^3H] thymidine incorporated into the cells were assayed by Betaplate filter counter system (Amersham Pharmacia Biotech). The difference between the amount of [^3H] thymidine incorporated in the LPA-added well and the amount of [^3H] thymidine incorporated in the well containing no LPA represents the amount of [^3H] thymidine incorporation accelerated by LPA. […] The test compounds were added immediately before the LPA addition.
# human EDG-2 = target: T1, human EDG-2 (Homo sapiens, UniProt Q92633); test: Inhibitory activity on LPA-induced elevation of intracellular Ca2+ level; assay type: cell-based; details: 50% inhibition of elevation of intracellular Ca2+ level by LPA, human EDG-2/HepG2 cells, fura-2
# T1 construct: cDNA of the cloned human EDG-2 was introduced into pEFneo, which is an animal expression vector; expressed in transfected cells; host or cells: HepG2
# Description: as §1
# Human EDG-2/HepG2 cells were washed and then suspended in 0.1% BSA (bovine serum albumin)-containing HEPES buffer. A fluorescent indicator, fura-2/AM (Wako Pure Chemical Industries, Ltd.), was added, and the mixture was shaken at room temperature for 45 minutes so that the indicator is included in the cell. Cells were washed again and then suspended in 0.1% BSA-containing HEPES buffer, and intracellular Ca^2+ level was assayed using FDSS2000 (Hamamatsu Photonics). […] Each test compound was added to the cell suspension followed by the addition of LPA, thereby examining the inhibitory activity of the test compound on the function of LPA for elevating the intracellular Ca level. […] The lower the IC50 value, the higher the antagonistic activity on the LPA receptor.
# T1 sequence (Q92633 whole entry): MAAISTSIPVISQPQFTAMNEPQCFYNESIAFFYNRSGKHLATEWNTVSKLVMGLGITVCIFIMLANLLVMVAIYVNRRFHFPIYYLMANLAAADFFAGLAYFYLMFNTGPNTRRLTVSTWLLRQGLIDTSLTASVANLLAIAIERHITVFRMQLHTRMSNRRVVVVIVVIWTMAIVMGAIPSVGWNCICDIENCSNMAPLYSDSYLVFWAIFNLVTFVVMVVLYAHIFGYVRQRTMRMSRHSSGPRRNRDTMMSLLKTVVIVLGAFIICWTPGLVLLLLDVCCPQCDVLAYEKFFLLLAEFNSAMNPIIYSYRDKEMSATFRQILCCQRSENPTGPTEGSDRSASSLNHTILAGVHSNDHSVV
IC50 (Human EDG-2/HepG2 cells),IC50 (human EDG-2),SMILES
0.3 to 1 µM,10 µM,"COC(=O)CCSCc1ccc(-c2onc(C)c2NC(=O)OC(C)c2ccccc2F)cc1 (stereo not shown) [Compound 156, Methyl 3-({4-[4-({[1-(2-fluorophenyl)ethoxy]carbonyl}amino)-3-methyl-5-isoxazolyl]-benzyl}-sulfanyl)propanoate]"
0.03 to 0.1 µM,3 to 10 µM,"Cc1noc(-c2ccc(CSCC(=O)O)cc2)c1NC(=O)OC(C)c1ccccc1Cl (stereo not shown) [Compound 121, 2-({4-[4-({[1-(2-Chlorophenyl)ethoxy]carbonyl}amino)-3-methyl-5-isoxazolyl]benzyl}-sulfanyl)acetic acid]"
0.1 to 0.3 µM,10 to 30 µM,"Cc1noc(-c2ccc(CSC(C)C(=O)O)cc2)c1NC(=O)OC(C)c1ccccc1Cl (stereo not shown) [Compound 148, 2-({4-[4-({[1-(2-Chlorophenyl)ethoxy]carbonyl}amino)-3-methyl-5-isoxazolyl]benzyl}-sulfanyl)propanoic acid]"
0.03 to 0.1 µM,3 to 10 µM,"Cc1noc(-c2ccc(CSCc3ccco3)cc2)c1NC(=O)OC(C)c1ccccc1Cl (stereo not shown) [Compound 107, 1-(2-Chlorophenyl)ethyl N-[5-(4-{[(2-furylmethyl)sulfanyl]methyl}phenyl)-3-methyl-4-isoxazolyl]carbamate]"
0.1 to 0.3 µM,3 to 10 µM,Cc1noc(-c2ccc(CSCC(O)CO)cc2)c1NC(=O)OC(C)c1ccccc1Cl (stereo not shown) [Compound 135]
0.1 to 0.3 µM,3 to 10 µM,"CCOC(=O)CSCc1ccc(-c2onc(C)c2NC(=O)OC(C)c2ccccc2Cl)cc1 (stereo not shown) [Compound 119, Ethyl 2-({4-[{4-(i [-(2-chlorophenyl)ethoxy]carbonyl}amino)-3-methyl-5-isoxazolyl]benzyl}-sulfanyl)acetate]"
0.03 to 0.1 µM,3 to 10 µM,"CCc1noc(-c2ccc(CSCCC(=O)O)cc2)c1NC(=O)OC(C)c1ccccc1Cl (stereo not shown) [Compound 147, 3-({4-[4-({[1-(2-Chlorophenyl)ethoxy]carbonyl}amino)-3-ethyl-5-isoxazolyl]benzyl}-sulfanyl)propanoic acid]"
0.1 to 0.3 µM,3 to 10 µM,"CCSCc1ccc(-c2onc(C)c2NC(=O)OC(C)c2ccccc2Cl)cc1 (stereo not shown) [Compound 108, 1-(2-Chlorophenyl)ethyl N-(5-{4-[(ethylsulfanyl)methyl]phenyl}-3-methyl-4-isoxazolyl)carbamate]"
0.3 µM,3 to 10 µM,"Cc1noc(-c2ccc(CSCCCS(=O)(=O)O)cc2)c1NC(=O)OC(C)c1ccccc1Cl (stereo not shown) [Compound 152, 3-({4-[4-({[1-(2-Chlorophenyl)ethoxy]carbonyl}amino)-3-methyl-5-isoxazolyl]benzyl}-sulfanyl)-1-propanesulfonic acid]"
0.03 µM,10 to 30 µM,"Cc1noc(-c2ccc(CSCCNC(=O)c3ccc[nH]3)cc2)c1NC(=O)OC(C)c1ccccc1Cl (stereo not shown) [Compound 149, 1-(2-Chlorophenyl)ethyl N-(3-methyl-5-{4-[({2-[(1H-2-pyrrolylcarbonyl)amino]ethyl}-sulfanyl)methyl]phenyl}-4-isoxazolyl)carbamate]"

# The remaining lines, values behind:
SMILES,IC50 (Human EDG-2/HepG2 cells),IC50 (human EDG-2)
"CCOC(=O)COCc1ccc(-c2onc(C)c2NC(=O)OC(C)c2ccccc2Cl)cc1 (stereo not shown) [Compound 168, Ethyl 2-({4-[4-({[1-(2-chlorophenyl)ethoxy]carbonyl}amino)-3-methyl-5-isoxazolyl]-benzyl}oxy)acetate]",1 µM,3 to 10 µM
"CCSCc1cccc(-c2onc(C)c2NC(=O)OC(C)c2ccccc2Cl)c1 (stereo not shown) [Compound 132, 1-(2-Chlorophenyl)ethyl N-(5-{3-[(ethylsulfanyl)methyl]phenyl}-3-methyl-4-isoxazolyl)carbamate]",0.3 to 1 µM,3 µM
"CCOC(=O)COCc1ccc(-c2onc(C)c2NC(=O)OC(c2ccccc2)C(F)(F)F)cc1 (stereo not shown) [Compound 169, Ethyl 2-{[4-(3-methyl-4-{[(2,2,2-trifluoro-1-phenylethoxy)carbonyl]amino}-5-isoxazolyl)-benzyl]oxy}acetate]",1 to 3 µM,3 to 10 µM
"Cc1noc(-c2cccc(CSCCC(=O)O)c2)c1NC(=O)OC(C)c1ccccc1Cl (stereo not shown) [Compound 159, 3-({3-[4-({[1-(2-Chlorophenyl)ethoxy]carbonyl}amino)-3-methyl-5-isoxazolyl]benzyl}-sulfanyl)propanoic acid]",0.3 µM,3 µM
"Cc1noc(-c2ccc(C#N)cc2)c1NC(=O)OC(C)c1ccccc1Cl (stereo not shown) [Compound 47, 1-(2-Chlorophenyl)ethyl N-[5-(4-cyanophenyl)-3-methyl-4-isoxazolyl]carbamate]",0.3 µM,1 µM
"Cc1ccsc1-c1onc(C)c1NC(=O)OC(C)c1ccccc1Cl (stereo not shown) [Compound 67, 1-(2-Chlorophenyl)ethyl N-[3-methyl-5-(3-methyl-2-thienyl)-4-isoxazolyl]carbamate]",1 µM,3 µM
CCc1noc(-c2ccc(CSCCC(=O)OC)cc2)c1NC(=O)OC(C)c1ccccc1Cl (stereo not shown) [Compound 146],0.03 to 0.3 µM,3 to 10 µM
"Cc1noc(-c2ccc(CNCc3ccccn3)cc2)c1NC(=O)OC(C)c1ccccc1Cl (stereo not shown) [Compound 105, 1-(2-Chlorophenyl)ethyl N-[3-methyl-5-(4-{[(2-pyridylmethyl)amino]methyl}-phenyl)-4-isoxazolyl]carbamate]",1 µM,10 to 30 µM
"Cc1onc(-c2ccccc2)c1NC(=O)OC(C)c1ccccc1Cl (stereo not shown) [Compound 4, 1-(2-Chlorophenyl)ethyl N-(5-methyl-3-phenyl-4-isoxazolyl)carbamate]",1 µM,3 µM
"Cc1cnc(CNCc2ccc(-c3onc(C)c3NC(=O)OC(C)c3ccccc3Cl)cc2)cn1 (stereo not shown) [Compound 114, 1-(2-Chlorophenyl)ethyl N-{3-methyl-5-[4-({[(5-methyl-2-pyrazyl)methyl]amino}-methyl)phenyl]-4-isoxazoly}carbamate]",0.3 to 1 µM,10 to 30 µM
"COC(=O)CSCc1cccc(-c2onc(C)c2NC(=O)OC(C)c2ccccc2Cl)c1 (stereo not shown) [Compound 130, Methyl 2-({3-[4-({[1-(2-chlorophenyl)ethoxy]carbonyl}amino)-3-methyl-5-isoxazolyl]-benzyl}sulfanyl)acetate]",0.3 to 1 µM,3 to 10 µM
"Cc1noc(-c2c(-c3ccccc3)noc2C)c1NC(=O)OC(C)c1ccccc1Cl (stereo not shown) [Compound 72, 1-(2-Chlorophenyl)ethyl N-[5-(3-phenyl-5-methyl-4-isoxazolyl)-3-methyl-4-isoxazolyl]carbamate]",–,10 to 30 µM
"Cc1noc(-c2ccc(C#N)cc2)c1NC(=O)OC(c1ccccc1)C(F)(F)F (stereo not shown) [Compound 86, 2,2,2-Trifluoro-1-phenylethyl N-[5-(4-cyanophenyl)-3-methyl-4-isoxazolyl]carbamate]",–,1 to 3 µM
"Cc1noc(-c2ccc(F)cc2F)c1NC(=O)OC(C)c1ccccc1Cl (stereo not shown) [Compound 60, 1-(2-Chlorophenyl)ethyl N-[5-(2,4-difluorophenyl)-3-methyl-4-isoxazolyl]carbamate]",–,1 to 3 µM
"Cc1onc(-c2ccccc2)c1NC(=O)OC(C)c1ccccc1Br (stereo not shown) [Compound 23, 1-(2-Bromophenyl)ethyl N-(5-methyl-3-phenyl-4-isoxazolyl)carbamate]",–,10 µM
"Cc1onc(-c2cccc(Br)c2)c1NC(=O)OC(C)c1ccccc1Cl (stereo not shown) [Compound 13, 1-(2-Chlorophenyl)ethyl N-[3-(3-bromophenyl)-5-methyl-4-isoxazolyl]carbamate]",–,30 µM
"Cc1noc(-c2ccsc2)c1NC(=O)OC(C)c1ccccc1Cl (stereo not shown) [Compound 75, 1-(2-Chlorophenyl)ethyl N-[3-methyl-5-(3-thienyl)-4-isoxazolyl]carbamate]",–,3 to 10 µM
"Cc1noc(-c2ccco2)c1NC(=O)OC(C)c1ccccc1 (stereo not shown) [Compound 31, 1-Phenylethyl N-[5-(2-furyl)-3-methyl-4-isoxazolyl]carbamate]",–,10 µM
"Cc1noc(-c2cccc(F)c2)c1NC(=O)O[C@H](C)c1ccccc1Br [Compound 33, (1R)-1-(2-Bromophenyl)ethyl N-[5-(3-fluorophenyl)-3-methyl-4-isoxazolyl]carbamate]",–,3 to 10 µM
"Cc1noc(-c2ccc(COCc3ccco3)cc2)c1NC(=O)OC(C)c1ccccc1Cl (stereo not shown) [Compound 84, 1-(2-Chlorophenyl)ethyl N-(5-[4-[(2-furylmethoxy)methyl]phenyl]-3-methyl-4-isoxazolyl)carbamate]",–,3 to 10 µM
"Cc1onc(-c2ccccc2)c1NC(=O)OC1CCc2ccccc2C1 (stereo not shown) [Compound 98, 1,2,3,4-Tetrahydro-2-naphthalenyl N-(5-methyl-3-phenyl-4-isoxazolyl)carbamate]",–,30 to 100 µM
